This note sets out measurements from patent US9862717B2 (Merck Patent GmbH, priority 2014, dated 2018).

Each structure is given as a SMILES string. pIC50: −log10 of the molar value.

T1 sequence (P49336 whole entry): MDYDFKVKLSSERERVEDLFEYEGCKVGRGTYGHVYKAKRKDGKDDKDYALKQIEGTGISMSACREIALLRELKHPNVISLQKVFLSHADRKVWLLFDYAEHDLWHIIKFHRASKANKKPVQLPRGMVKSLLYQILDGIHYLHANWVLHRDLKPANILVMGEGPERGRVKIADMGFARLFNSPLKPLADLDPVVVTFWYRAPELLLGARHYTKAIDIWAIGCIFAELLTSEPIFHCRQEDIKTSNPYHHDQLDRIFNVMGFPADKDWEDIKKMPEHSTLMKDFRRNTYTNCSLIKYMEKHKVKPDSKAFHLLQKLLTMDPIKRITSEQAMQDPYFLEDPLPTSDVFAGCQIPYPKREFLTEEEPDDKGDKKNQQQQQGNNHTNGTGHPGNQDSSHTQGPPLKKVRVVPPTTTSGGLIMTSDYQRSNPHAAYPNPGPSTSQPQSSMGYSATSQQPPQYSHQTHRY
T1 sequence (P24863 whole entry partner): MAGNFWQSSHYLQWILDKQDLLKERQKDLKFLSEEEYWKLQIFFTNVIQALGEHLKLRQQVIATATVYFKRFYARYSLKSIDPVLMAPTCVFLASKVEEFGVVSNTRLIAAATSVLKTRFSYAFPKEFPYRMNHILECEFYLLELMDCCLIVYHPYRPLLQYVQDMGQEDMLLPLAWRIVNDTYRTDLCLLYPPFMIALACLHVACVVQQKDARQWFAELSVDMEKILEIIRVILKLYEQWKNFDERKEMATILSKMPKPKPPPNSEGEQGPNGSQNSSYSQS

One experiment has as its target T1, CDK8/CycC (Homo sapiens, UniProt P49336).
T1 construct: purchased Invitrogen PV4402
Kind of experiment: FRET based Lanthascreen binding competition assay for CDK8 inhibitory activity. Conditions: CDK8 co-expressed with CycC; class symbols; read-out: IC50. From the text:
Biochemical Assay for CDK8 Inhibitory Activity FRET based Lanthascreen binding competition assay: A dye-labeled ATP competitive probe served as a FRET acceptor upon binding to CDK8 labeled with a strepavidin -Eu-chelate (via a biotinylated anti His antibody). The result was a fluorescence signal at 647 nm. In case this probe was competed by an inhibitor, such a signal cannot be generated any more. The CDK8 used for this assay was a protein co-expressed with CycC. The assay procedure for an assay in a 1536 well plate was performed according to the following: 2 μL CDK8/biotin-anti-His Ab/SA-Eu mix in Assay buffer were pipetted into the wells of a micro plate. 1 μL compound in 20 mM Hepes buffer/5% DMSO was added. The plate was shaken for 30 sec and incubated for 20 min at RT. 2 μL Alexa647-probe in assay buffer were added. The plate was shaken for 30 sec again and incubated for 60 min at RT in the dark. Then the plate was read out on a Perkin Elmer Envision (mode LANCE/TRF, excitation 340 nm emission 650 nm). […] The readouts were fitted to IC50 curves using Genedata Condoseo.
A general note: TR-FRET usually uses a lanthanide donor and a delayed reading to cut background.
On to `Nc1n[nH]c2ccc(C(=O)N3CCC[C@@H]3c3ccccc3)cc12` [compound 132, (3-Amino-1H-indazol-5-yl)-((R)-2-phenyl-pyrrolidin-1-yl)-methanone], for which the pIC50 (commonly −log10 of the IC50, conventionally taken in molar units) was 6.00 to 7.00.

Consider `O=C(c1cnc2[nH]nc(C(F)(F)F)c2c1)N1CCC[C@@H]1c1ccc(Cl)cc1` (stereo in doubt) [compound 181, [(R)-2-(4-Chloro-phenyl)-pyrrolidin-1-yl]-(3-trifluoromethyl-1H-pyrazolo[3,4-b]pyridin-5-yl)-methanone], for which the pIC50 was 6.00 to 7.00.

As for `O=C(c1cnc2[nH]nc(C3CC3)c2c1)N1CCCC1c1ccc(Cl)cc1` (centres unmarked) [compound 70, [2-(4-Chloro-phenyl)-pyrrolidin-1-yl]-(3-cyclopropyl-1H-pyrazolo[3,4-b]pyridin-5-yl)-methanone], the pIC50 was 7.00 to 8.00.

Take `O=C(c1cnc2[nH]nc(C(F)(F)F)c2c1)N1CCCCC1c1ccccc1` (centres unmarked) [compound 169, (2-Phenyl-piperidin-1-yl)-(3-trifluoromethyl-1H-pyrazolo[3,4-b]pyridin-5-yl)-methanone]: the pIC50 is 6.00 to 7.00.

Turning to `Cc1n[nH]c2ncc(C(=O)N3CC[C@@H]3c3ccc(F)cc3)cc12` [compound 175, [(R)-2-(4-Fluoro-phenyl)-azetidin-1-yl]-(3-methyl-1H-pyrazolo[3,4-b]pyridin-5-yl)-methanone], the pIC50 was 6.00 to 7.00.

For `CCCc1n[nH]c2ccc(C(=O)N3CCCC3c3ccc(Br)cc3)cc12` (racemic) [compound 4, [2-(4-Bromo-phenyl)-pyrrolidin-1-yl]-(3-propyl-1H-indazol-5-yl)-methanone], the pIC50 was > 8.00.

In the case of `Cc1n[nH]c2ncc(C(=O)N3CCC[C@H]3c3ccc(CN)cc3)cc12` [compound 262, [(S)-2-(4-Aminomethyl-phenyl)-pyrrolidin-1-yl]-(3-methyl-1H-pyrazolo[3,4-b]pyridin-5-yl)-methanone], the negative logarithm of the IC50 (pIC50) is 6.00 to 7.00.

Turning to `Cc1n[nH]c2ncc(C(=O)N3CCC[C@H]3c3ccc(C#N)cc3)cc12` [compound 247, 4-[(S)-1-(3-Methyl-1H-pyrazolo[3,4-b]pyridine-5-carbonyl)-pyrrolidin-2-yl]-benzonitrile], the pIC50 is 7.00 to 8.00.

Consider `Nc1n[nH]c2ccc(C(=O)N3CCC(O)(c4ccc(Cl)cc4)C3)cc12` (centres unmarked) [compound 238, (3-Amino-1H-indazol-5-yl)-[3-(4-chloro-phenyl)-3-hydroxy-pyrrolidin-1-yl]-methanone], for which the negative logarithm of the IC50 (pIC50) was 6.00 to 7.00.

As for `Nc1n[nH]c2ccc(C(=O)N3CCCC(c4ccccc4)C3)cc12` (centres unmarked) [compound 115], the pIC50 was 6.00 to 7.00.

As to `COc1ccc([C@@H]2CCCN2C(=O)c2cnc3[nH]nc(C)c3c2)cc1` [compound 221, [(S)-2-(4-Methoxy-phenyl)-pyrrolidin-1-yl]-(3-methyl-1H-pyrazolo[3,4-b]pyridin-5-yl)-methanone], the pIC50 was > 8.00.

Turning to `Nc1n[nH]c2ccc(C(=O)N3CCCC3c3cccc(Cl)c3)cc12` (centres unmarked) [compound 147, (3-Amino-1H-indazol-5-yl)-[2-(3-chloro-phenyl)-pyrrolidin-1-yl]-methanone], the negative-log IC50 (pIC50) is 6.00 to 7.00.

Consider `Nc1n[nH]c2ccc(C(=O)N3CCCCC3c3ccccc3)cc12` (centres unmarked) [compound 82, (3-Amino-1H-indazol-5-yl)-(2-phenyl-piperidin-1-yl)-methanone], for which the pIC50 was 7.00 to 8.00.

For `Cc1n[nH]c2ncc(C(=O)N3CCCC3c3ccc(Cl)c(Cl)c3)cc12` (centres unmarked) [compound 188, [2-(3,4-Dichloro-phenyl)-pyrrolidin-1-yl]-(3-methyl-1H-pyrazolo[3,4-b]pyridin-5-yl)-methanone], the pIC50 was 7.00 to 8.00.

On to `Cc1n[nH]c2ncc(C(=O)N3CCC[C@H]3c3ccccc3Cl)cc12` [compound 36, [(S)-2-(2-Chloro-phenyl)-pyrrolidin-1-yl]-(3-methyl-1H-pyrazolo[3,4-b]pyridin-5-yl)-methanone], for which the pIC50 is 7.00 to 8.00.

With `CS(=O)(=O)c1n[nH]c2ccc(C(=O)N3CCC[C@H]3c3ccc(Cl)cc3)cc12` [compound 220, [(S)-2-(4-Chloro-phenyl)-pyrrolidin-1-yl]-(3-methanesulfonyl-1H-indazol-5-yl)-methanone], the pIC50 was 7.00 to 8.00.

`O=C(c1ccc2[nH]nc(Cl)c2c1)N1CCC(c2ccc(Cl)cc2)C1` (centres unmarked) [compound 218, (3-Chloro-1H-indazol-5-yl)-[3-(4-chloro-phenyl)-pyrrolidin-1-yl]-methanone]: the pIC50 is 7.00 to 8.00.

`COc1ccccc1C1CCCN1C(=O)c1cnc2[nH]nc(C)c2c1` (centres unmarked) [compound 141, [2-(2-Methoxy-phenyl)-pyrrolidin-1-yl]-(3-methyl-1H-pyrazolo[3,4-b]pyridin-5-yl)-methanone]: the pIC50 was 6.00 to 7.00.

In the case of `Cc1n[nH]c2ccc(C(=O)N3CCC[C@H]3c3ccc(Br)cc3)nc12` [compound 54, [(S)-2-(4-Bromo-phenyl)-pyrrolidin-1-yl]-(3-methyl-1H-pyrazolo[4,3-b]pyridin-5-yl)-methanone], the pIC50 was > 8.00.

In the case of `Cc1n[nH]c2ncc(C(=O)N3CCC[C@@H]3c3ccccc3)cc12` [compound 38, (3-Methyl-1H-pyrazolo[3,4-b]pyridin-5-yl)-((R)-2-phenyl-pyrrolidin-1-yl)-methanone], the pIC50 was 6.00 to 7.00.

As to `Cc1n[nH]c2ccc(C(=O)N3CCC[C@H]3c3ccc(C(F)(F)F)cc3)nc12` [compound 257, (S)-(3-Methyl-1H-pyrazolo[4,3-b]pyridin-5-yl)(2-(4-(trifluoromethyl)phenyl)pyrrolidin-1-yl)methanone], the pIC50 was > 8.00.

For the compound `O=C(c1cnc2[nH]nc(C(F)(F)F)c2c1)N1CCC[C@H]1c1ccc(Cl)cc1` (stereo in doubt) [compound 180, [(S)-2-(4-Chloro-phenyl)-pyrrolidin-1-yl]-(3-trifluoromethyl-1H-pyrazolo[3,4-b]pyridin-5-yl)-methanone], the pIC50 was > 8.00.

On to `Cc1n[nH]c2ncc(C(=O)N3C[C@H](C(N)=O)[C@@H](c4ccc(Cl)cc4)C3)cc12` [compound 186, (3R,4S)-4-(4-Chloro-phenyl)-1-(3-methyl-1H-pyrazolo[3,4-b]pyridine-5-carbonyl)-pyrrolidine-3-carboxylic acid amide], for which the pIC50 was 6.00 to 7.00.

For `O=C(c1cnc2[nH]nc(C(F)(F)F)c2c1)N1CCCC[C@@H]1c1ccccc1` [compound 183, ((R)-2-Phenyl-piperidin-1-yl)-(3-trifluoromethyl-1H-pyrazolo[3,4-b]pyridin-5-yl)-methanone], the negative-log IC50 (pIC50) was 6.00 to 7.00.

In the case of `Cc1n[nH]c2ncc(C(=O)N3CC[C@H]3c3ccc(Cl)cc3)cc12` [compound 241, [(S)-2-(4-Chloro-phenyl)-azetidin-1-yl]-(3-methyl-1H-pyrazolo[3,4-b]pyridin-5-yl)-methanone], the pIC50 was 7.00 to 8.00.

Take `Cc1n[nH]c2ncc(C(=O)N3CCC[C@H]3c3ccc(C(F)(F)F)cc3)cc12` [compound 157, (3-Methyl-1H-pyrazolo[3,4-b]pyridin-5-yl)-[(S)-2-(4-trifluoromethyl-phenyl)-pyrrolidin-1-yl]-methanone]: the pIC50 was > 8.00.

Turning to `Cc1n[nH]c2ccc(C(=O)N3CCCC3c3ccc(Cl)c(F)c3)nc12` (centres unmarked) [compound 260, (2-(4-chloro-3-fluorophenyl)pyrrolidin-1-yl)(3-methyl-1H-pyrazolo[4,3-b]pyridin-5-yl)methanone], the negative logarithm of the IC50 (pIC50) is > 8.00.

With `Cc1n[nH]c2ncc(C(=O)N3C[C@H](C)C[C@H]3c3ccc(C(F)(F)F)cc3)cc12` [compound 232, (3-Methyl-1H-pyrazolo[3,4-b]pyridin-5-yl)-[(2S,4R)-4-methyl-2-(4-trifluoromethyl-phenyl)-pyrrolidin-1-yl]-methanone], the pIC50 is 7.00 to 8.00.

For `CN[C@@H]1C[C@@H](c2ccc(Cl)cc2)N(C(=O)c2cnc3[nH]nc(C)c3c2)C1` [compound 254, [(2S,4R)-2-(4-Chloro-phenyl)-4-methylamino-pyrrolidin-1-yl]-(3-methyl-1H-pyrazolo[3,4-b]pyridin-5-yl)-methanone], the pIC50 was 6.00 to 7.00.

`Cc1n[nH]c2ncc(C(=O)N3CCC[C@@H]3c3ccc(F)cc3)cc12` [compound 44, [(R)-2-(4-Fluoro-phenyl)-pyrrolidin-1-yl]-(3-methyl-1H-pyrazolo[3,4-b]pyridin-5-yl)-methanone]: the pIC50 was 6.00 to 7.00.

As for `Cc1n[nH]c2ncc(C(=O)N3CCC[C@@H]3c3ccc4[nH]ncc4c3)cc12` [compound 246, [(R)-2-(1H-Indazol-5-yl)-pyrrolidin-1-yl]-(3-methyl-1H-pyrazolo[3,4-b]pyridin-5-yl)-methanone], the pIC50 was 5.00 to 6.00.

As to `Cc1n[nH]c2ncc(C(=O)N3CCC[C@H]3c3ccc(F)cc3)cc12` [compound 43, [(S)-2-(4-Fluoro-phenyl)-pyrrolidin-1-yl]-(3-methyl-1H-pyrazolo[3,4-b]pyridin-5-yl)-methanone], the pIC50 was > 8.00.

The same experiment, now with this note: IC50 [μM], CDK8 co-expressed with CycC; class symbols.
As to `Cc1n[nH]c2ccc(C(=O)N3CCN(C)CC3c3ccc(Cl)cc3)cc12` (centres unmarked) [compound 244, (2-(4-chlorophenyl)-4-methylpiperazin-1-yl)(3-methyl-1H-indazol-5-yl)methanone], the IC50 (in general, the concentration at which inhibition is half-maximal) was in the range of 0.01 to 0.1 µM.

`Nc1n[nH]c2ccc(C(=O)N3CCC[C@H]3c3ccc(F)cc3)cc12` [compound 124, (3-Amino-1H-indazol-5-yl)-[(S)-2-(4-fluoro-phenyl)-pyrrolidin-1-yl]-methanone]: the IC50 was in the range of 0.01 to 0.1 µM.

Take `Cc1n[nH]c2ccc(C(=O)N3CC[C@H]3c3ccc(Cl)cc3)cc12` [compound 202, [(S)-2-(4-Chloro-phenyl)-azetidin-1-yl]-(3-methyl-1H-indazol-5-yl)-methanone]: the IC50 is < 0.01 µM.
